# Patent US20170052170A1, “NOVEL CELL LINES AND METHODS” (priority 2009, published 2017)
# Target: T1, sweet taste receptor (endogenously expressed T1R2/T1R3) (Homo sapiens, UniProt Q7RTX0+Q8TE23)
# T1 construct: endogenous in cells; host or cells: HuTu (ATCC HTB-40), H716 (ATCC CCL-251), HEK 293T (ATCC CRL-11268); some with prior UV treatment
# T1 sequence (Q8TE23 20-839): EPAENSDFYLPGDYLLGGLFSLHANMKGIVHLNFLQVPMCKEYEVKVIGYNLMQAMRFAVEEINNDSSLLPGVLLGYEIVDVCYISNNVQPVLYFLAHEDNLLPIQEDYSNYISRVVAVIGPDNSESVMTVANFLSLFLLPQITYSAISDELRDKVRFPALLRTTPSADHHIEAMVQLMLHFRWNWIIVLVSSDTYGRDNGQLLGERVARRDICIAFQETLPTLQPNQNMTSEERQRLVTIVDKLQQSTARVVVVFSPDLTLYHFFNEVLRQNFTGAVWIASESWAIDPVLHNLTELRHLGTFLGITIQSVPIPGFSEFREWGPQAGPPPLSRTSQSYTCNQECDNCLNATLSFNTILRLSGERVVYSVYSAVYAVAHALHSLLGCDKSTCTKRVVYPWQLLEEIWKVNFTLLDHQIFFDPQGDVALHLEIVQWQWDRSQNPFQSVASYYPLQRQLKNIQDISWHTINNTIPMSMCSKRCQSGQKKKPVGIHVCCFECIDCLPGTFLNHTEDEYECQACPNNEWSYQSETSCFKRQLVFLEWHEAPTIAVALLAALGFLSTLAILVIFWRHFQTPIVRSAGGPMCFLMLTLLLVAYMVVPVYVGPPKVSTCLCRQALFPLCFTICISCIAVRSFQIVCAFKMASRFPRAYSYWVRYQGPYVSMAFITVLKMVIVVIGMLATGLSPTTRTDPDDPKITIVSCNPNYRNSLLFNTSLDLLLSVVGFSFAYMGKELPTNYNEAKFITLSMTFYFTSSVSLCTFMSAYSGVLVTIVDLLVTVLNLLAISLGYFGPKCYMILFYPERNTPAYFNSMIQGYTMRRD
# T1 sequence (Q7RTX0 21-852): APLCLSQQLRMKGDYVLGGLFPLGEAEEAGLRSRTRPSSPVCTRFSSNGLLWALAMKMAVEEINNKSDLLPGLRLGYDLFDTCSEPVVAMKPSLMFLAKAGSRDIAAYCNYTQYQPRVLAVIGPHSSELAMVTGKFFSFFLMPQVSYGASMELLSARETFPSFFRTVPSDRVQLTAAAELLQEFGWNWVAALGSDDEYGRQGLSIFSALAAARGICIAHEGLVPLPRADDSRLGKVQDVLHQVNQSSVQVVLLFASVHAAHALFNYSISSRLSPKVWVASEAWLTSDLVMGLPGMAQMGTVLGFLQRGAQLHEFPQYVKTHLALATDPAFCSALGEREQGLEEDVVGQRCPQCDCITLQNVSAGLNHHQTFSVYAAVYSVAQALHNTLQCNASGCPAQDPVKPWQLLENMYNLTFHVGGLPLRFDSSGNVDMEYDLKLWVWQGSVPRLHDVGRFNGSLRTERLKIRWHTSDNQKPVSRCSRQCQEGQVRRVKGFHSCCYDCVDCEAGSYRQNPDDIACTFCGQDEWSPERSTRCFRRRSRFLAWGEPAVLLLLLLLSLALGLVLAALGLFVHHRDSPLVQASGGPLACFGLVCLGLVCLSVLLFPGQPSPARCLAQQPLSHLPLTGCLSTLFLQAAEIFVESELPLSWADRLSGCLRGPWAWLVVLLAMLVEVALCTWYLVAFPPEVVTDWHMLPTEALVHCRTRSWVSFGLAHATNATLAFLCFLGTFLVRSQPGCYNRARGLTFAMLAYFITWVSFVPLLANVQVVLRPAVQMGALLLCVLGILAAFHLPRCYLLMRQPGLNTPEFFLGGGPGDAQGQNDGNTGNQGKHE
# Experiment: calcium flux response to fructose of cells cultured from individual isolated HuTu, H716 and 293T cells
# Type: cell-based
# Conditions: fructose final concentration 15 mM, control response subtracted
# Experimental: FIGS. 28 A-C depict representative traces of the functional cell-based response of cells of the invention to the addition of fructose (to a final concentration of 15 mM) compared to background. Cells cultured from individual isolated cells were tested (black traces) compared to control cells (gray traces). […] The cell-based assay was designed to report calcium flux using a fluorescent calcium signaling dye. Fluorescent assay response is plotted along the Y-axis and time is indicated along the X-axis. Arrows indicate the timepoint at which fructose was added. FIG. 28A depicts traces from cells cultured from an individual HuTu cell compared to control. FIG. 28B depicts traces from cells cultured from an individual H716 cell compared to control. FIG. 28C depicts traces from cells cultured from an individual 293T cell compared to control.
# In a specific aspect, provided herein is a method for isolating a cell that endogenously expresses a sweet taste receptor T1R2 subunit and/or sweet taste receptor T1R3 subunit, wherein the method comprises the steps of: • a) providing a population of cells; • b) introducing into the cells a signaling probe or molecular beacon that detects expression of T1R2 and/or introducing into the cells a molecular beacon that detects expression of T1R3; and • c) isolating cells that express a sweet taste receptor T1R2 subunit and/or sweet taste receptor T1R3 subunit. […]
compound,measurement,value
O=C(CO)[C@@H](O)[C@H](O)[C@H](O)CO [fructose],functional cell-based (calcium flux) response compared to control cells,higher response
